Measured values as given in US12600726B2, “Antagonists of the muscarinic acetylcholine receptor M4” (Vanderbilt University, priority 2017, dated 2026).

Columns and labels:
Mouse M4 = molecular target: T1, Mouse M4 (Mus musculus, UniProt P32211); test: mAChR M4 cell-based functional calcium flux assay (mouse M4/Gqi5/CHO cells); settings: for Emin (mouse M4): % ACh maximum at 30 μM
T1 construct: expressed in transfected cells; host or cells: CHO-K1 (ATCC), stably expressing M4 and Gqi5
T1 sequence (P32211 1-479): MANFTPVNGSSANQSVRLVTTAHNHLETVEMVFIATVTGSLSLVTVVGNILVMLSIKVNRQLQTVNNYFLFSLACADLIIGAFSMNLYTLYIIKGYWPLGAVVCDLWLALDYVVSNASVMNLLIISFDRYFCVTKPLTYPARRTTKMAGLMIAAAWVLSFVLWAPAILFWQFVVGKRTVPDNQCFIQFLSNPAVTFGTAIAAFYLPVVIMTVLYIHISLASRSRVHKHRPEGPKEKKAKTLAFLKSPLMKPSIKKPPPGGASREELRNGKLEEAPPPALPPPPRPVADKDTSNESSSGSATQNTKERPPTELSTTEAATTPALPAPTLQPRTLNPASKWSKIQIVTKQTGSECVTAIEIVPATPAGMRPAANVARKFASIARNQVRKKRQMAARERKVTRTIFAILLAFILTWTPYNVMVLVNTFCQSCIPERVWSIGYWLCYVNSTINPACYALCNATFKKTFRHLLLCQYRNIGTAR
Protocol: Human, rat, or mouse M4. cDNA, along with the chimeric G protein Gqi5, were transfected into Chinese hamster ovary (CHO-K1) cells purchased from the American Type Culture Collection using Lipofectamine2000. M4/Gqi5/CHO cells were grown in Ham's F-12 medium containing 10% heat-inactivated fetal bovine serum (FBS), 20 mM HEPES, 500 μg/mL G418 sulfate, and 200 μg/mL Hygromycin B.
For high throughput measurement of agonist-evoked increases in intracellular calcium, CHO-K1 cells stably expressing muscarinic receptors were plated in growth medium lacking G418 and hygromycin at 15,000 cells/20 μL/well in Greiner 384-well black-walled, tissue culture (TC)-treated, clear-bottom plates (VWR). Cells were incubated overnight at 37° C. and 5% CO2. The next day, cells were washed using an ELX 405 (BioTek) with assay buffer; the final volume was then aspirated to 20 μL. Next, 20 μL of a 2.3 μM stock of Fluo-4/acetoxymethyl ester (Invitrogen, Carlsbad, CA), prepared as a 2.3 mM stock in DMSO and mixed in a 1:1 ratio with 10% (w/v) Pluronic F-127 and diluted in assay buffer, was added to the wells and the cell plates were incubated for 50 min at 37° C. and 5% CO2. Dye was removed by washing with the ELX 405 and the final volume was aspirated to 20 μL. Compound master plates were formatted in a 10 point concentration-response curve (CRC) format (1:3 dilutions) in 100% DMSO with a starting concentration of 10 or 1 mM using a BRAVO liquid handler (Agilent). Test compound CRCs were then transferred to daughter plates (240 nL) using the Echo acoustic plate reformatter (Labcyte, Sunnyvale, CA) and then diluted into assay buffer (40 μL) to a 2× stock using a Thermo Fisher Combi (Thermo Fisher Scientific, Waltham, MA).
Calcium flux was measured using the Functional Drug Screening System (FDSS) 6000 or 7000 (Hamamatsu Corporation, Tokyo, Japan) as an increase in the fluorescent static ratio. Compounds were applied to cells (20 μL, 2×) using the automated system of the FDSS at 2 seconds into the protocol and the data were collected at 1 Hz. At 143 s, 10 μL of an EC20 concentration of the muscarinic receptor agonist acetylcholine was added (5×), followed by the addition of 12 μL of an EC80 concentration of acetylcholine at the 268 s time point (5×). Agonist activity was analyzed as a concentration-dependent increase in calcium mobilization upon compound addition. Positive allosteric modulator activity was analyzed as a concentration-dependent increase in the EC20 acetylcholine response. Antagonist activity was analyzed as a concentration-dependent decrease in the EC80 acetylcholine response; for the purposes of the tables herein, an IC50 (inhibitory concentration 50) was calculated as a concentration-dependent decrease of the response elicited by an EC80 concentration of acetylcholine. Concentration-response curves were generated using a four-parameter logistical equation in XLFit curve fitting software (IDBS, Bridgewater, NJ) for Excel (Microsoft, Redmond, WA) or Prism (GraphPad Software, Inc., San Diego, CA) or the Dotmatics software platform (Dotmatics, Bishop's Stortford, UK).
Compounds were synthesized as described above. Activity (IC50 and Emin) was determined in the mAChR M4 cell-based functional assay as described above and the data are shown in Table 2 and Table 3. The compound number corresponds to the compound numbers used in the examples and Tables 1 and 1.1.

[1] = tested on: haloperidol-induced catalepsy; test: haloperidol-induced catalepsy, a model of parkinsonian motor disability; format: in vivo, mice
From the text: Furthermore, haloperidol-induced catalepsy, a model of parkinsonian motor disability, is reduced in M4 knockout mice as compared to wild-type controls. […] The reversal by scopolamine was uncommonly robust and more pronounced than we observe with agents targeting a number of other targets being evaluated for potential antiparkinsonian effects, including metabotropic glutamate (mGlu) receptors mGlu4 or mGlu5, A2A adenosine receptors, and NMDA receptors. […] Taken together with the extensive studies of M4 modulation of basal ganglia and motor function, these studies provide compelling evidence that M4 is the dominant mAChR subtype involved in the antiparkinsonian effects of non-selective mAChR antagonists and provide support for discovery and development of selective M4 antagonists for treatment of neurodegenerative disease such as PD, dystonia, tardive dyskinesia and other movement disorders.

[2] = decrease of the response to an EC80 concentration of acetylcholine

Row | SMILES | Emin (mouse M4) (Mouse M4) [%] | IC50 (Mouse M4; [2]) [µM] | IC50 (Mouse M4; in μM, decrease of the EC80 acetylcholine response) [µM] | reduction of haloperidol-induced catalepsy ([1]; M4 KO mice) | reversal of haloperidol-induced catalepsy ([1]; WT mice)
1 | C1=CC2CC1CC2CN1CCC2(CC1)CC2CNc1ccc2nncn2n1 (stereo not shown) [Compound 103, N-[[6-(5-bicyclo[2.2.1]hept-2-enylmethyl)-6-azaspiro[2.5]octan-2-yl]methyl]-[1,2,4]triazolo[4,3-b]pyridazin-6-amine] | 13 | 1.5 |  |  | 
2 | CC(C)(C)CCN1CCC2(CC1)CC2CNc1ccc2nncn2n1 (stereo not shown) [Compound 104, N-[[6-(3,3-dimethylbutyl)-6-azaspiro[2.5]octan-2-yl]methyl]-[1,2,4]triazolo[4,3-b]pyridazin-6-amine] | 17 | 2.82 |  |  | 
3 | CN1[C@@H]2C[C@@H](OC(=O)[C@H](CO)c3ccccc3)C[C@H]1[C@@H]1O[C@@H]12 [scopolamine] |  |  |  | ineffective | completely reversed

The next lines start with results.

Row | Emin (mouse M4) (Mouse M4) [%] | IC50 (Mouse M4; [2]) [µM] | IC50 (Mouse M4; in μM, decrease of the EC80 acetylcholine response) [µM] | SMILES | reduction of haloperidol-induced catalepsy ([1]; M4 KO mice) | reversal of haloperidol-induced catalepsy ([1]; WT mice)
4 | 37 |  | > 10 | c1cc2nncn2nc1NCC1CC12CCN(CC1CCCCC1)CC2 (stereo not shown) [Compound 105, N-[[6-(cyclohexylmethyl)-6-azaspiro[2.5]octan-2-yl]methyl]-[1,2,4]triazolo[4,3-b]pyridazin-6-amine] |  | 
5 | 9 | 0.68 |  | Fc1ccc(Cl)c(-c2ccc(NC[C@@H]3CC34CCN(CC3CCCOC3)CC4)nn2)c1 (stereo partly drawn) [Compound 106, (R)-6-(2-chloro-5-fluoro-phenyl)-N-[[6-(tetrahydropyran-3-ylmethyl)-6-azaspiro[2.5]octan-2-yl]methyl]pyridazin-3-amine] |  | 
